≈ marks a conversion by molar mass, not a printed value.
Columns and labels:
[1] = test system: P388 murine leukemia, B16 melanoma, Lewis lung carcinoma, and several human tumor xenograft models in mice; details: human tumor xenografts in mice; cited from earlier work
[2] = test system: P388 = murine lymphoma cells; assay: Cytotoxicity against P388 cells; format: cell-based
[3] = test system: Bacillus subtilis; assay: Antimicrobial activity against Bacillus subtilis (MIC, disc); format: cell-based; details: for B.s. MIC: Bacillus subtilis
[4] = test system: HT29 = human colon carcinoma; assay: Cytotoxicity against HT29 cells; format: cell-based
[5] = test system: MEL28 = human melanoma; assay: Cytotoxicity against MEL28 cells; format: cell-based
[6] = test system: protein synthesis; assay: Antimetabolism: protein synthesis inhibition; format: cell-based
[7] = test system: DNA synthesis; assay: Antimetabolism: DNA synthesis inhibition; format: cell-based
[8] = test system: RNA synthesis; assay: Antimetabolism: RNA synthesis inhibition; format: cell-based
[9] = test system: A549 = human lung carcinoma; assay: Cytotoxicity against A549 cells; format: cell-based
[10] = test system: CV-1 = monkey kidney cells; assay: Cytotoxicity against CV-1 cells; format: cell-based
[11] = molecular target: RNA polymerase; assay: Enzyme inhibition: RNA polymerase inhibition; format: biochemical
[12] = molecular target: DNA polymerase; assay: Enzyme inhibition: DNA polymerase inhibition; format: biochemical
[13] = test system: L1210 = murine lymphoma cells; assay: Cytotoxicity against L1210 cells; format: cell-based
[14] = test system: B16 melanoma; details: evaluated by the NCI; cited from earlier work
[15] = Stability in solution; format: physicochemical; details: giving reddish color

Compound | P388 IC50 [2] [µg/mL] | B.s. MIC [3] [μg/disc] | HT29 IC50 [4] [µg/mL] | MEL28 IC50 [5] [µg/mL] | Prot. (protein synthesis inhibition) IC50 [6] [µg/mL] | DNA (DNA synthesis inhibition) IC50 [7] [µg/mL] | RNA (RNA synthesis inhibition) IC50 [8] [µg/mL] | A549 IC50 [9] [µg/mL] | CV-1 IC50 [10] [µg/mL] | RNAp (RNA polymerase inhibition) IC50 [11] [µg/mL] | also measured
COc1c(C)cc2c(c1O)[C@H]1N[C@@H](C2)[C@H](O)N2[C@H]1[C@@H]1SC[C@]3(NCCc4c3[nH]c3ccccc43)C(=O)OC[C@H]2c2c3c(c(C)c(OC(C)=O)c21)OCO3 [Et 722] | 0.001 | 0.70 | 0.002 | 0.002 | 0.9 | 0.4 | 0.1 | 0.001 | 0.005 | 0.5 | efficacy in vivo [1]: promising efficacy in vivo; DNAp (DNA polymerase inhibition) IC50 [12]: >1 µg/mL
COc1cc2c(cc1O)CCNC21CSC2c3c(OC(C)=O)c(C)c4c(c3C(COC1=O)N1C(C(C=O)C=O)C3Cc5cc(C)c(OC)c(O)c5C(C21)N3C)OCO4 (stereo not shown) [Et 815, Ecteinascidin 815] | 0.0025 | 0.75 | 0.005 |  |  | >1 | 0.1 | 0.005 | 0.005 |  | L1210 IC50 [13]: 0.025 µg/mL
COc1cc2c(cc1O)CCNC21C[S+]([O-])C2c3c(OC(C)=O)c(C)c4c(c3C(COC1=O)N1C(O)C3Cc5cc(C)c(OC)c(O)c5C(N3)C21)OCO4 (stereo not shown) [Et 745B, Ecteinascidin 745B] | 0.005 |  | 0.01 |  |  | >1 | 0.5 | 0.01 | 0.025 | 3 | L1210 IC50 [13]: 0.025 µg/mL
COc1c(C)cc2c(c1O)C1C3[C@@H]4SCC(=O)C(=O)OC[C@@H](c5c6c(c(C)c(OC(C)=O)c54)OCO6)N3[C@@H](O)[C@H](C2)N1C (stereo partly shown) [Et 594, Ecteinascidin 594] | 0.01 | 0.37 | 0.025 | 0.025 | 0.8 | 0.5 | 0.5 | 0.02 | 0.025 | 1.0 | 
COc1c(C)cc2c(c1O)[C@@H]1[C@@H]3[C@@H]4SC[C@]5(NCCc6c5[nH]c5ccccc65)C(=O)OC[C@@H](c5c6c(c(C)c(OC(C)=O)c54)OCO6)N3[C@@H](O)[C@H](C2)N1C [Et 736] | 0.0005 | 0.38 | 0.0025 | 0.0025 | 0.5 | 0.4 | 0.1 | 0.001 | 0.0025 | 0.5 | 
COc1cc2c(cc1O)CCN[C@]21C[S+]([O-])[C@@H]2c3c(OC(C)=O)c(C)c4c(c3[C@H](COC1=O)N1[C@H]2[C@H]2c3c(cc(C)c(OC)c3O)C[C@@H]([C@H]1O)N2C)OCO4 (stereo partly shown) [Et 759B] | 0.005 | 3.90 | 0.005 | 0.01 | >1 | 0.7 | 0.5 | 0.005 | 0.025 | >1 | 
COc1cc2c(cc1O)CCN[C@]21CS[C@@H]2c3c(OC(C)=O)c(C)c4c(c3[C@H](COC1=O)N1[C@@H]2[C@@H]2N[C@@H](Cc3cc(C)c(OC)c(O)c32)[C@@H]1O)OCO4 [Et 729] | 0.0002 | 0.08 | 0.0005 | 0.005 | >1 | 0.2 | 0.02 | 0.0002 | 0.0025 | 0.05 | efficacy in vivo [1]: promising efficacy in vivo; survivors 60 days following infection with B16 melanoma [14]: 8 of 10; L1210 IC50 [13]: <0.001 µg/mL; DNAp (DNA polymerase inhibition) IC50 [12]: 1.5 µg/mL
COc1c(C)cc2c(c1O)C1NC(C2)C(O)N2C3COC(=O)C(N)CSC(c4c(OC(C)=O)c(C)c(OC)c(O)c43)C12 (stereo not shown) [Et 583, Ecteinascidin 583] |  | 0.74 |  |  |  |  |  |  |  | 0.5 | IC50 ([2]; Mus musculus): 0.01 µg/mL (≈ 0.0166 µM); IC50 ([4]; HT-29): 0.01 µg/mL (≈ 0.0166 µM); IC50 ([5]; SK-MEL-28): 0.005 µg/mL (≈ 0.00831 µM); IC50 ([6]; read-out: Prot. (protein synthesis inhibition) IC50): 1 µg/mL (≈ 1.66 µM); IC50 [7]: 1 µg/mL (≈ 1.66 µM); IC50 [8]: 0.4 µg/mL (≈ 0.665 µM); IC50 [9]: 0.01 µg/mL (≈ 0.0166 µM); IC50 ([10]; Primates): 0.025 µg/mL (≈ 0.0416 µM)
COc1cc2c(cc1O)CCN[C@]21CS[C@@H]2c3c(OC(C)=O)c(C)c4c(c3[C@H](COC1=O)N1C[C@@H]3Cc5cc(C)c(OC)c(O)c5[C@H]([C@H]21)N3C)OCO4 [Et 745] | 0.01 | 6.50 | 0.025 | 0.05 |  | >1 | 0.3 | 0.02 | 0.05 |  | 
COc1cc2c(cc1O)CCNC21CSC2c3c(OC(C)=O)c(C)c4c(c3C(COC1=O)N1CC3Cc5cc(C)c(OC)c(O)c5C(N3)C21)OCO4 (stereo not shown) [Et 731, Ecteinascidin 731] | 0.1 | 6.20 | 0.1 | 0.2 | >1 |  |  | 0.1 | 0.2 |  | 
COc1cc2c(cc1O)CCNC21CSC2c3c(OC(C)=O)c(C)c4c(c3C(COC1=O)N1C(O)C3Cc5c(Br)c(C)c(OC)c(O)c5C(C21)N3C=O)OCO4 (stereo not shown) [N—CHO, 15-Br (18)] | 0.05 |  | 0.2 |  |  |  |  | 0.2 | 0.25 |  | 
COc1c(C)cc2c(c1O)[C@@H]1[C@@H]3[C@@H]4SC[C@H](N)C(=O)OC[C@@H](c5c(O)c(OC)c(C)c(OC(C)=O)c54)N3[C@@H](O)[C@@H](C2)N1C [Et 597, Ecteinascidin 597] | 0.002 | 0.14 | 0.002 | 0.002 | 0.7 | 0.08 | 0.01 | 0.002 | 0.0025 | 0.25 | stability in solution [15]: decomposed slowly in solution
COc1cc2c(cc1O)CCN[C@]21CS[C@@H]2c3c(OC(C)=O)c(C)c4c(c3[C@H](COC1=O)N1[C@@H]2[C@H]2c3c(cc(C)c(OC)c3O)C[C@@H]([C@@H]1O)N2C)OCO4 [Et 743] | 0.0002 | 0.02 | 0.0005 | 0.005 | >1 | 0.1 | 0.03 | 0.0002 | 0.001 | 0.1 | efficacy in vivo [1]: promising efficacy in vivo; L1210 IC50 [13]: 0.005 µg/mL; DNAp (DNA polymerase inhibition) IC50 [12]: 2 µg/mL
COc1cc2c(cc1OC(C)=O)CCN[C@]21CS[C@@H]2c3c(OC(C)=O)c(C)c4c(c3[C@H](COC1=O)N1[C@@H]2[C@H]2c3c(O)c(OC)c(C)c(Br)c3C[C@@H]([C@@H]1O)N2C)OCO4 [6′-Ac, 15-Br] |  |  |  |  |  | 0.5 |  |  |  | 0.42 | 
Ecteinascidin 596 [Et 596] |  |  |  |  |  |  |  |  |  |  | antimicrobial activity against B. subtilis (MIC) ([3]; crude sample, single major peak by FABMS): 0.3 μg/disc
COc1cc2c(cc1O)CCNC21CSC2c3c(OC(C)=O)c(C)c4c(c3C(COC1=O)N1C(O)C3Cc5cc(C)c(OC)c(O)c5C(C21)N3C=O)OCO4 (stereo not shown) [N—CHO] |  | 6.60 |  |  |  |  |  |  |  | 4 | 

From patent US20090247533A1, “Ecteinascidins” (The Board of Trustees of the University of Illinois, priority 1994, published 2009)
